Patent publication US11040981B2, “Pyrrolotriazine compounds and methods of inhibiting TAM kinases” (Syros Pharmaceuticals, Inc., priority 2017, dated 2021)
pIC50: −log10 of the molar value.

Experiments:
AXL = biological target: T1, AXL (Homo sapiens, UniProt P30530); assay: TR-FRET kinase activity assay, AXL; type: biochemical; conditions: ATP at Km, 60 minutes
T1 sequence (P30530 26-894): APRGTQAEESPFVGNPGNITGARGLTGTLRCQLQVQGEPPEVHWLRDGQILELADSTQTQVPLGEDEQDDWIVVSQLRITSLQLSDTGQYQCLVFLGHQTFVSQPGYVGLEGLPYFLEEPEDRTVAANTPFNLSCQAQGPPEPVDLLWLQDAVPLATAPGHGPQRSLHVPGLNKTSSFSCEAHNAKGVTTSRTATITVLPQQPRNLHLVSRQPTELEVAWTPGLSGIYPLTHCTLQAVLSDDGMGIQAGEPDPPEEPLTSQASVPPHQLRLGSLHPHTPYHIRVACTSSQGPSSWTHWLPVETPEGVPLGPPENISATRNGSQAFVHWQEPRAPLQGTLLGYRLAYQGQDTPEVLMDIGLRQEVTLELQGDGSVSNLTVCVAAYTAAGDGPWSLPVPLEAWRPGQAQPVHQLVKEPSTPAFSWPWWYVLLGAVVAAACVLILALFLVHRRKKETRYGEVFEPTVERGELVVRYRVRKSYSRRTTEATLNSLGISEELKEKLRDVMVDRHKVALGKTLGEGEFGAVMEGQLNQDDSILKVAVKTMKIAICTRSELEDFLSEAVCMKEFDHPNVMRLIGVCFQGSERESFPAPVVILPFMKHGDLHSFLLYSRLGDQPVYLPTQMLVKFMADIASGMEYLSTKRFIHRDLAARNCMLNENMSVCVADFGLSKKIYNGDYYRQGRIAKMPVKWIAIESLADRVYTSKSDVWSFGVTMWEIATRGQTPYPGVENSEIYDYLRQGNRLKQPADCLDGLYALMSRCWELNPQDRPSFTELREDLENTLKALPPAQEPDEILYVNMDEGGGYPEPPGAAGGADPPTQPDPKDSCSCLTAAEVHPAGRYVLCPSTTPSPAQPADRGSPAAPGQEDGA
Summary of the method: (§1)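 Recombinant human kinases, fluorescent peptide substrate, ATP at Km; 1 h RT, pH 7.5. EDTA-quenched, Eu antibody added, TR-FRET read; IC50 determined.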

FLT3 = biological target: T2, FLT3 (Homo sapiens, UniProt P36888); assay: TR-FRET kinase activity assay, FLT3; type: biochemical; conditions: ATP at Km, 60 minutes
T2 sequence (P36888 27-993): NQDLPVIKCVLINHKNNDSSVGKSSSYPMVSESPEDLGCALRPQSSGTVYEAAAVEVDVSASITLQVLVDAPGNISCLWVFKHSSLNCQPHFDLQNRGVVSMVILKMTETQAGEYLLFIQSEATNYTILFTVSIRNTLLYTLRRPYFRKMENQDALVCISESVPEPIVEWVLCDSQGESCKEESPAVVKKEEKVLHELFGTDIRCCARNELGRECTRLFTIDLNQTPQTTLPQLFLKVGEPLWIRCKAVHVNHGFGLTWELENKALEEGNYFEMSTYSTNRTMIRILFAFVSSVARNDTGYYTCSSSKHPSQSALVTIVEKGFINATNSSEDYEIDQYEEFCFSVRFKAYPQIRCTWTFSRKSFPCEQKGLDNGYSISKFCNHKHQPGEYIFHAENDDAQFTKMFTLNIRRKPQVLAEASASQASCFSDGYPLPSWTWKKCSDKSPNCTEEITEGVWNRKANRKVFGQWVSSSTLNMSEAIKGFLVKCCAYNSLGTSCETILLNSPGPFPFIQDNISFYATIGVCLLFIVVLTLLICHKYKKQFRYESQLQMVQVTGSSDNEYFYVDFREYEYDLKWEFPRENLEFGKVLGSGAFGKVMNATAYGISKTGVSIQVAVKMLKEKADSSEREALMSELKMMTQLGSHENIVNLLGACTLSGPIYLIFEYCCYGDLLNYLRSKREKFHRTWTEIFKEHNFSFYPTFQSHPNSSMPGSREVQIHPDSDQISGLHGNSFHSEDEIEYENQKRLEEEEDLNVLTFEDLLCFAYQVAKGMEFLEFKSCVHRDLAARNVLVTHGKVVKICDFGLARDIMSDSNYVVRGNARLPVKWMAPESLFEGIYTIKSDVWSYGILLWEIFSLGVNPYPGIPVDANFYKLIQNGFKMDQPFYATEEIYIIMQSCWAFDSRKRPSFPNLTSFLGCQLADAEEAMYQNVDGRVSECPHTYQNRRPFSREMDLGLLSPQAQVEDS
Summary of the method: as §1

pIC50 (AXL) | pIC50 (FLT3) | SMILES
6.00 to 7.00 | 6.00 to 7.00 | CN1CCN(Cc2ccc(-c3cc(C4CCC(O)CC4)n4nc(NC5CCC5(C)C)ncc34)cc2)CC1 (mixture of isomers) [Compound 121]
6.00 to 7.00 | 5.00 to 6.00 | COCC(C)Nc1ncc2c(C3CCN(C(C)=O)C3)cc(C3CCC(O)CC3)n2n1 (mixture of isomers) [Compound 383]
≥ 7.00 | 6.00 to 7.00 | COC[C@H](C)Nc1ncc2c(-c3ccc(CN4CCN(C)CC4)cc3)cc([C@H]3CC[C@H](O)CC3)n2n1 (single isomer, unassigned) [Compound 124]
6.00 to 7.00 | 5.00 to 6.00 | CC[C@H](C)Nc1ncc2c(-c3cncc(S(C)(=O)=O)c3)cc([C@H]3CC[C@H](O)CC3)n2n1 [Compound 119]
6.00 to 7.00 | 5.00 to 6.00 | CC[C@H](C)Nc1ncc2c(-c3cncc(S(C)(=O)=O)c3)cc([C@H]3CC[C@@H](O)CC3)n2n1 [Compound 120]
≥ 7.00 | 6.00 to 7.00 | CCCCC[C@H](C)Nc1ncc2c(C3=CCC(C(=O)O)CC3)cc([C@H]3CC[C@H](O)CC3)n2n1 (stereo partly drawn) [Compound 122, 4-(2-((S)-heptan-2-ylamino)-7-((trans)-4-hydroxycyclohexyl)pyrrolo[2,1-f][1,2,4]triazin-5-yl)cyclohex-3-enecarboxylic acid]
5.00 to 6.00 | 5.00 to 6.00 | CCC(C)Nc1ncc2c(C)cc(C3CCC(O)CC3)n2n1 (stereo not shown) [Compound 123]
6.00 to 7.00 | 5.00 to 6.00 | CCCCC[C@H](C)Nc1ncc2c([C@H]3CC[C@@H](C(=O)O)CC3)cc([C@H]3CC[C@H](O)CC3)n2n1 [Compound 125, (cis)-4-(2-((S)-heptan-2-ylamino)-7-((trans)-4-hydroxycyclohexyl)pyrrolo[2,1-f][1,2,4]triazin-5-yl)cyclohexanecarboxylic acid]
≥ 7.00 | ≥ 7.00 | C[C@@H](CC(F)(F)F)Nc1ncc2c(-c3ccnc(N4CCOCC4)c3)cc([C@H]3CC[C@H](O)CC3)n2n1 [Compound 346]
≥ 7.00 | ≥ 7.00 | CNC(=O)c1ncc(-c2cc([C@H]3CC[C@H](O)CC3)n3nc(N[C@@H](C)CC(F)(F)F)ncc23)cn1 [Compound 347]
≥ 7.00 | 6.00 to 7.00 | COC[C@H](C)Nc1ncc2c(-c3cnn([C@H]4CCNC4=O)c3)cc([C@H]3CC[C@H](O)CC3)n2n1 [Compound 348]
5.00 to 6.00 | 5.00 to 6.00 | COC[C@H](C)Nc1ncc2c(-c3cc([C@H]4CC[C@H](O)CC4)n4nc(N[C@@H](C)COC)ncc34)cc([C@H]3CC[C@H](O)CC3)n2n1 [Compound 349]
≥ 7.00 | ≥ 7.00 | CC(C)Nc1ncc2c(-c3ccnc(N4CCOCC4)c3)cc([C@H]3CC[C@H](O)CC3)n2n1 [Compound 350]
≥ 7.00 | ≥ 7.00 | C[C@@H](CC(F)F)Nc1ncc2c(-c3cnn(C4COC4)c3)cc([C@H]3CC[C@H](O)CC3)n2n1 [Compound 351]
≥ 7.00 | ≥ 7.00 | CC(CC(F)F)Nc1ncc2c(-c3ccc(CN4CCN(C)CC4)cc3)cc(C3CCC(O)CC3)n2n1 (stereo not shown) [Compound 352]
6.00 to 7.00 | 6.00 to 7.00 | CNC(=O)c1cc(-c2cc([C@H]3CC[C@H](O)CC3)n3nc(N[C@@H](C)CC(F)(F)F)ncc23)cc(C)n1 [Compound 353]
≥ 7.00 | 6.00 to 7.00 | CNc1cc(-c2cc([C@H]3CC[C@H](O)CC3)n3nc(N[C@@H](C)COC)ncc23)ccn1 [Compound 354]
≥ 7.00 | ≥ 7.00 | COC[C@H](C)Nc1ncc2c(-c3ccnc(N4CCOCC4)c3)cc([C@H]3CC[C@H](O)CC3)n2n1 [Compound 355]
≥ 7.00 | ≥ 7.00 | OC1CCC(c2cc(-c3ccnc(N4CCOCC4)c3)c3cnc(NC4CCOC4)nn23)CC1 (stereo not shown) [Compound 356]

pIC50 (AXL) | pIC50 (FLT3) | SMILES
≥ 7.00 | 6.00 to 7.00 | COC[C@H](C)Nc1ncc2c(-c3ccnc(N4CCS(=O)(=O)CC4)c3)cc([C@H]3CC[C@H](O)CC3)n2n1 [Compound 357]
≥ 7.00 | 5.00 to 6.00 | COC[C@H](C)Nc1ncc2c(-c3ccnc(OC4COC4)c3)cc([C@H]3CC[C@H](O)CC3)n2n1 [Compound 358]
≥ 7.00 | ≥ 7.00 | OC1CCC(c2cc(-c3ccnc(N4CCOCC4)c3)c3cnc(NCCC4CC4)nn23)CC1 (stereo not shown) [Compound 359]
≥ 7.00 | ≥ 7.00 | CNS(=O)(=O)c1ccc(-c2cc([C@H]3CC[C@H](O)CC3)n3nc(N[C@@H](C)CC(F)(F)F)ncc23)cn1 [Compound 360]
≥ 7.00 | 5.00 to 6.00 | CNOc1cc(-c2cc([C@H]3CC[C@H](O)CC3)n3nc(N[C@@H](C)COC)ncc23)ccn1 [Compound 361]
≥ 7.00 | ≥ 7.00 | O[C@H]1CC[C@H](c2cc(-c3ccnc(N4CCOCC4)c3)c3cnc(N[C@H]4CCOC4)nn32)CC1 [Compound 362]
≥ 7.00 | ≥ 7.00 | O[C@H]1CC[C@H](c2cc(-c3ccnc(N4CCOCC4)c3)c3cnc(NCCC(F)(F)F)nn32)CC1 [Compound 363]
≥ 7.00 | ≥ 7.00 | COC[C@H](C)Nc1ncc2c(-c3cnn([C@@H]4CCC(C(=O)OC(C)(C)C)C4)c3)cc([C@H]3CC[C@H](O)CC3)n2n1 (stereo partly shown) [Compound 364]
≥ 7.00 | 6.00 to 7.00 | COC[C@H](C)Nc1ncc2c(-c3cnn([C@H]4CCC(C(=O)OC(C)(C)C)C4)c3)cc([C@H]3CC[C@H](O)CC3)n2n1 (stereo partly shown) [Compound 365]
≥ 7.00 | 5.00 to 6.00 | COCC(C)Nc1ncc2c(-c3cnn(C(C)(C)C(=O)N4CCOC(C)(C)C4)c3)cc(C3CCC(O)CC3)n2n1 (stereo not shown) [Compound 366]
≥ 7.00 | 5.00 to 6.00 | COC[C@H](C)Nc1ncc2c(-c3cnn(C(C)(C)C(=O)N4C[C@@H](C)O[C@H](C)C4)c3)cc([C@H]3CC[C@H](O)CC3)n2n1 [Compound 367]
≥ 7.00 | 6.00 to 7.00 | COC[C@H](C)Nc1ncc2c(-c3cnn(C[C@@H]4CCC(=O)N4)c3)cc([C@H]3CC[C@H](O)CC3)n2n1 [Compound 368]
≥ 7.00 | 6.00 to 7.00 | COC[C@H](C)Nc1ncc2c(-c3ccnc(OC4CCNCC4)c3)cc([C@H]3CC[C@H](O)CC3)n2n1 [Compound 369]
≥ 7.00 | ≥ 7.00 | CC(=O)N1CCN(Cc2ccc(-c3cc(C4CCC(O)CC4)n4nc(NC(C)CC(F)(F)F)ncc34)cc2)CC1 (stereo not shown) [Compound 370]
5.00 to 6.00 | 5.00 to 6.00 | COCC(C)Nc1ncc2c(C3CCCN(C(C)=O)C3)cc(C3CCC(O)CC3)n2n1 (stereo not shown) [Compound 371]
5.00 to 6.00 | 5.00 to 6.00 | COC[C@H](C)Nc1ncc2c([C@@H]3CCCN(C(C)=O)C3)cc([C@H]3CC[C@H](O)CC3)n2n1 [Compound 372]
6.00 to 7.00 | 5.00 to 6.00 | COCC(C)Nc1ncc2c(C3CCN(c4ccnc(C)n4)C3)cc(C3CCC(O)CC3)n2n1 (stereo not shown) [Compound 373]
≥ 7.00 | 5.00 to 6.00 | COCC(C)Nc1ncc2c(C3CCN(c4ccnc(C)n4)C3)cc(C3CCC(O)CC3)n2n1 (stereo not shown) [Compound 374]
6.00 to 7.00 | 5.00 to 6.00 | COC[C@H](C)Nc1ncc2c([C@@H]3CCN(S(C)(=O)=O)C3)cc([C@H]3CC[C@H](O)CC3)n2n1 [Compound 375]
